Assays:
[1] = compared with MPA; cited from earlier work
[2] = test system: human type II IMPDH mutants of Ser 275, Ser 327 and Gln 368; assay: MPA inhibition of IMPDH mutants of other active site residues; assay type: biochemical; details: mutations of Ser 275, Ser 327 and Gln 368
Protocol: Residues which make direct contact with MPA also were modified.
Cultures (500 ml) were grown at 37° C. for 14 to 16 hours after IPTG induction, and typically yielded 2 grams of cell paste. Cells were resuspended in 50 mM Tris, pH 8.0, 150 mM KCl, 3 mM EDTA, 2 mM DTT buffer containing 10% urea, and then lysed by addition of lysozyme (1 mg/g cell paste) and sonication. IMPDH wild-type and mutant proteins were precipitated from crude lysates by 25% w/v ammonium sulfate. Up to 150 mgs of at least 65%-70% pure IMPDH was obtained by this single purification step. The partially purified IMPDH was resuspended in 50 mM Tris, pH 8.0, 100 mM KCl, 3 mM EDTA, 2 mM DTT, 10% glycerol buffer and used for kinetic analysis. Second order rate constants (k cat/Km, M^−1sec^−1) were calculated from IMP titration data at saturating (400 mM). NAD concentration obtained by monitoring the rate of NADH production at 340 nm at 37° C. […] Ki app. values for MPA were obtained from the rate vs. inhibitor data of IMPDH mutants at saturating IMP and NAD concentrations.

murine blastoma cells = details: cells selected for resistance, carrying the Thr 333 to Ile mutation; cited from earlier work

## COc1c(CC=C(C)CCC(=O)O)cc2c(c1C)COC2=O [des-hydroxy-MPA]
[1]
  fold less potent than MPA in a cellular assay: at least 1,000 fold

## mycophenolic acid [MPA]
[2]
  effect of mutation on drug inhibition: little effect
Murine blastoma cells
  increased resistance to MPA: 10,000 fold
